Measurements from publication PMC9299836 (eLife, 2022).
Values joined by “and” are separate entries in the source; they are usually repeats but may differ in a detail not shown here. Equal entries are not always repeated.

What was measured:
mGluR2 [1] = biological target: T1, mGluR2 (Mus musculus, UniProt Q14BI2); experiment: Functional calcium imaging, SNAP-mGluR2 (no FLAG-tag) with chimeric G protein Gqo5 in HEK293T cells; assay type: cell-based; parameters: Full length mGluR2 construct with an amber codon (TAG) mutation of amino acid A548 (azi-CRD) or N-terminal SNAP-tag (SNAP-mGluR2); host or cells: HEK293T; conditions: for Intracellular Ca2+ response, Mean / Intracellular Ca2+ response: normalized to 1mM glutamate; for Intracellular Ca2+ response: single experiments
T1 sequence (Q14BI2 19-872): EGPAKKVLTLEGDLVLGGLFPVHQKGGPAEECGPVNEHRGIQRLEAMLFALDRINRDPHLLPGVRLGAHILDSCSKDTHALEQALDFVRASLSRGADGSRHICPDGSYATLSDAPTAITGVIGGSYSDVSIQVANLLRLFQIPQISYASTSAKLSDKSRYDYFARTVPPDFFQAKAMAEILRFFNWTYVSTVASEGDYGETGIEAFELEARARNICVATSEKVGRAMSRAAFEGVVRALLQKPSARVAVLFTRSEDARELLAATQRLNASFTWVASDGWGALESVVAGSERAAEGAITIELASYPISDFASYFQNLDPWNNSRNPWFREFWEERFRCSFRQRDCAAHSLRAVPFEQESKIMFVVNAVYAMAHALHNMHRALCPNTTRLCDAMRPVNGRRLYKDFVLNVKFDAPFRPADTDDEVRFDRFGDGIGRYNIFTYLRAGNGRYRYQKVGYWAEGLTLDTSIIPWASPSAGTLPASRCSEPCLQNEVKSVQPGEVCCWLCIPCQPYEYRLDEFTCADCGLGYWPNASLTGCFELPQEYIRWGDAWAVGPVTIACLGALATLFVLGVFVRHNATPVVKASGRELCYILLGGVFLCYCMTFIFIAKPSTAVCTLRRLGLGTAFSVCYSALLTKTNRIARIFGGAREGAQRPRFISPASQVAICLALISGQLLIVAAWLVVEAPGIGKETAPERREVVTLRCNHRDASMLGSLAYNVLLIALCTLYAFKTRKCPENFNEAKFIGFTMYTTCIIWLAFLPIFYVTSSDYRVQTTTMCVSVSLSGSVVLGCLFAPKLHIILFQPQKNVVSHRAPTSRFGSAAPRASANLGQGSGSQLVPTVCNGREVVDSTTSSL

mGluR2 [2] = biological target: mGluR2 (Mus musculus, UniProt Q14BI2, INS715F); experiment: Live-cell FRET, azi-ECL2 (7TM domain, extracellular loop 2) sensor in HEK293T cells;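 note: Cy3/Cy5 click-labeled sensor, whole-membrane ROIs per cell, apparent FRET after bleed-through correction, ΔFRET as treatment minus pre-treatment signal, at room temperature, at least three biological replicates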
Chain of mGluR2 (Mus musculus, UniProt Q14BI2, INS715F) (Q14BI2 with tags, fused parts or gaps INS715F): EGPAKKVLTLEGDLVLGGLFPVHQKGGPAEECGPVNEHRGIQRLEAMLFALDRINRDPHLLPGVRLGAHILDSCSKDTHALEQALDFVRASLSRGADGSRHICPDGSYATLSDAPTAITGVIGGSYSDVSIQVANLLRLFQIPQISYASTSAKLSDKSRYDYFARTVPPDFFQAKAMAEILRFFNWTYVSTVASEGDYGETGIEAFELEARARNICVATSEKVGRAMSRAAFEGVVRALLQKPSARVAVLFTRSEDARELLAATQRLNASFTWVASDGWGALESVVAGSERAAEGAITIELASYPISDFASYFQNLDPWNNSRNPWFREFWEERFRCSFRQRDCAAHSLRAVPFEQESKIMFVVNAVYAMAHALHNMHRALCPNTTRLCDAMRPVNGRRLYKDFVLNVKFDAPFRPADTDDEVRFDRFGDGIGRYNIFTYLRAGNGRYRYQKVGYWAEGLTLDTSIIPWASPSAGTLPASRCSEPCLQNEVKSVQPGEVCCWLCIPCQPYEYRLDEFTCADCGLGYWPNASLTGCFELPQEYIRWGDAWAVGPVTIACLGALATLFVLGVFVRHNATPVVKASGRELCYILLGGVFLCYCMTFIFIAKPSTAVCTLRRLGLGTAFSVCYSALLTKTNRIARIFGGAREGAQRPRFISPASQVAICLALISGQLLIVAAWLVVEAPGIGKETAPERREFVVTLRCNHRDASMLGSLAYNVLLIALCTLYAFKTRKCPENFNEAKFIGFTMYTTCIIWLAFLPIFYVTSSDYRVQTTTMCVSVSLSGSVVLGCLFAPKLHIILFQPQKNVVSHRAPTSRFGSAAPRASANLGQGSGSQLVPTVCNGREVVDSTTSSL

mGluR2 [3] = biological target: mGluR2 (Mus musculus, UniProt Q14BI2, A548F); experiment: Live-cell FRET, azi-CRD (cysteine-rich domain) sensor in HEK293T cells; conditions: for Normalized FRET response, Mean (azi-CRD agonist DRC): maximal responses normalized to 1mM glutamate
Chain of mGluR2 (Mus musculus, UniProt Q14BI2, A548F) (Q14BI2 19-872 A548F): as the sequence (Q14BI2 19-872) above, with A530F counted along it

mGluR2 [4] = biological target: T1, mGluR2; experiment: Live-cell FRET, SNAP-m2 (VFT domain) inter-subunit sensor in HEK293T cells; conditions: for Normalized FRET response, Mean (SNAP-m2 agonist DRC): maximal responses normalized to 1mM glutamate;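 for all read-outs here: apparent FRET efficiency from whole-membrane ROIs of single cells, corrected for donor bleed-through and background, ΔFRET as treatment minus pretreatment signal, recorded at room temperature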

Normalized Max Intracellular Ca2+ Response, individual experiments (mGluR2 [1]; 100 μM DCG-IV, 10 μM LY379268, 300 μM APDC, normalized to 1 mM glutamate, single replicate): 1.134 and 1.073 and 0.9696 | Normalized Max Intracellular Ca2+ Response, mean (mGluR2 [1]; 1 mM Glu, 100 μM DCG-IV, 10 μM LY379268, 300 μM APDC, normalized to 1 mM glutamate): 1.059 | Intracellular Ca2+ response, Mean (mGluR2 [1]; log[agonist] (M) -5): 1.059 | Intracellular Ca2+ response (mGluR2 [1]; log[agonist] (M) -5): 1.059 | Intracellular Ca2+ response, Mean (mGluR2 [1]; log[agonist] (M) -5.30103): 1.029 | Intracellular Ca2+ response (mGluR2 [1]; log[agonist] (M) -5.30103): 1.067 and 1.001 and 1.018 | Intracellular Ca2+ response, Mean (mGluR2 [1]; log[agonist] (M) -5.69897): 1.028 | Intracellular Ca2+ response (mGluR2 [1]; log[agonist] (M) -5.69897): 0.9461 and 1.043 and 1.094 | Intracellular Ca2+ response, Mean (mGluR2 [1]; log[agonist] (M) -6): 1.014 | Intracellular Ca2+ response (mGluR2 [1]; log[agonist] (M) -6): 0.8943 and 1.055 and 1.093 | Intracellular Ca2+ response, Mean (mGluR2 [1]; log[agonist] (M) -6.60206): 0.8831 | Intracellular Ca2+ response (mGluR2 [1]; log[agonist] (M) -6.60206): 0.7751 and 0.9366 and 0.9375 | Intracellular Ca2+ response, Mean (mGluR2 [1]; log[agonist] (M) -7.1549): 0.4554 | Intracellular Ca2+ response (mGluR2 [1]; log[agonist] (M) -7.1549): 0.4206 and 0.5128 and 0.4328 | Intracellular Ca2+ response, Mean (mGluR2 [1]; log[agonist] (M) -7.52288): 0.1775 | Intracellular Ca2+ response (mGluR2 [1]; log[agonist] (M) -7.52288): 0.2096 and 0.1787 and 0.1441 | Intracellular Ca2+ response, Mean (mGluR2 [1]; log[agonist] (M) -8): 0.00736 | Intracellular Ca2+ response, Mean (mGluR2 [1]; log[agonist] (M) -8.39794): 0 | Intracellular Ca2+ response (mGluR2 [1]; log[agonist] (M) -8.39794): 0 | Intracellular Ca2+ response, Mean (mGluR2 [1]; log[agonist] (M) -8.82391): 0 | Intracellular Ca2+ response (mGluR2 [1]; log[agonist] (M) -8.82391): 0 | Intracellular Ca2+ response, Mean (mGluR2 [1]; log[agonist] (M) -9.52288): 0 | Intracellular Ca2+ response (mGluR2 [1]; log[agonist] (M) -9.52288): 0 | Intracellular Ca2+ response, Mean (mGluR2 [1]; log[agonist] (M) -10): 0 | Intracellular Ca2+ response (mGluR2 [1]; log[agonist] (M) -10): 0 | EC50 (mGluR2 [1]; one value per experiment, read-out: EC50, intracellular Ca2+ response): 84.9 nM and 98.9 nM and 71 nM | EC50 (mGluR2 [2]; EC50, live-cell FRET titration, azi-ECL2 sensor, LY379268, individual cell values (N=9)): 6.91 nM and 29 nM and 9.62 nM and 9.94 nM and 8.57 nM and 6.02 nM and 9.91 nM and 5.72 nM and 5.97 nM | EC50 (mGluR2 [2]; Mean half-maximum effective concentration (EC50), azi-ECL2 sensor, orthosteric agonist alone, nM for LY379268 (footnote)): 10.2 nM | Mean max response (normalized max ΔFRET) (mGluR2 [2]; azi-ECL2, agonist alone (1 mM glutamate, 100 μM DCG-IV, 20 μM LY379268, 100 μM APDC), normalized to 1 mM glutamate): 1.14 | Normalized ΔFRET response, Mean (agonist DRC) (mGluR2 [2]; azi-ECL2, log[agonist] (M) -4.69897, normalized to 1 mM glutamate): 1.14 | Normalized ΔFRET response, Mean (agonist DRC) (mGluR2 [2]; azi-ECL2, log[agonist] (M) -6, normalized to 1 mM glutamate): 1.108 | Normalized ΔFRET response, Mean (agonist DRC) (mGluR2 [2]; azi-ECL2, log[agonist] (M) -7.1549, normalized to 1 mM glutamate): 1.024 | Normalized ΔFRET response, Mean (agonist DRC) (mGluR2 [2]; azi-ECL2, log[agonist] (M) -7.52288, normalized to 1 mM glutamate): 0.9098 | Normalized ΔFRET response, Mean (agonist DRC) (mGluR2 [2]; azi-ECL2, log[agonist] (M) -8, normalized to 1 mM glutamate): 0.6174 | Normalized ΔFRET response, Mean (agonist DRC) (mGluR2 [2]; azi-ECL2, log[agonist] (M) -8.39794, normalized to 1 mM glutamate): 0.327 | Normalized ΔFRET response, Mean (agonist DRC) (mGluR2 [2]; azi-ECL2, log[agonist] (M) -8.82391, normalized to 1 mM glutamate): 0.1901 | Normalized ΔFRET response, Mean (agonist DRC) (mGluR2 [2]; azi-ECL2, log[agonist] (M) -9.52288, normalized to 1 mM glutamate): 0.0544 | Normalized ΔFRET response, Mean (agonist DRC) (mGluR2 [2]; azi-ECL2, log[agonist] (M) -10, normalized to 1 mM glutamate): 0 | Normalized ΔFRET response, Mean (agonist DRC) (mGluR2 [2]; azi-ECL2, log[agonist] (M) -10.699, normalized to 1 mM glutamate): 0 | Normalized Max ΔFRET, Mean (mGluR2 [2]; azi-ECL2, 20μM agonist, mean of cells, normalized to 1mM glutamate): 114.025 | Hill slope (mGluR2 [2]; azi-ECL2 sensor, orthosteric agonist alone): 1.03 | EC50 (mGluR2 [3]; Live-cell FRET titration EC50, azi-CRD, agonist alone, individual experiments): 12.7 nM and 14.3 nM and 9.97 nM and 8.96 nM and 10.9 nM and 13.4 nM and 14.5 nM and 16 nM and 14.4 nM and 12.2 nM and 11.3 nM and 13.2 nM and 11.7 nM and 11.4 nM and 10.4 nM and 14.2 nM and 9.03 nM and 7.75 nM | EC50 (mGluR2 [3]; Mean half-maximum effective concentration (EC50), azi-CRD sensor, orthosteric agonist alone, nM for LY379268 (footnote)): 12.1 nM | Hill slope (mGluR2 [3]; azi-CRD sensor, orthosteric agonist alone): 1.36 | Mean max response (normalized max ΔFRET) (mGluR2 [3]; azi-CRD, agonist alone (1 mM glutamate, 100 μM DCG-IV, 20 μM LY379268, 100 μM APDC), normalized to 1 mM glutamate): 1.06 | Normalized Max ΔFRET, Mean (mGluR2 [3]; azi-CRD, 20μM agonist, mean of cells, normalized to 1mM glutamate): 106.212 | Normalized FRET response, Mean (azi-CRD agonist DRC) (mGluR2 [3]; log[ligand] (M) -4.69897): 1.062 | Normalized FRET response, Mean (azi-CRD agonist DRC) (mGluR2 [3]; log[ligand] (M) -6): 1.058 | Normalized FRET response, Mean (azi-CRD agonist DRC) (mGluR2 [3]; log[ligand] (M) -7.1549): 0.9652 | Normalized FRET response, Mean (azi-CRD agonist DRC) (mGluR2 [3]; log[ligand] (M) -7.52288): 0.8398 | Normalized FRET response, Mean (azi-CRD agonist DRC) (mGluR2 [3]; log[ligand] (M) -8): 0.4669 | Normalized FRET response, Mean (azi-CRD agonist DRC) (mGluR2 [3]; log[ligand] (M) -8.39794): 0.1943 | Normalized FRET response, Mean (azi-CRD agonist DRC) (mGluR2 [3]; log[ligand] (M) -8.82391): 0.06461 | Normalized FRET response, Mean (azi-CRD agonist DRC) (mGluR2 [3]; log[ligand] (M) -9.52288): 0.04231 | Normalized FRET response, Mean (azi-CRD agonist DRC) (mGluR2 [3]; log[ligand] (M) -10): 0 | Emax (mGluR2 [4]; HEK-293T, read-out: Normalized Max ΔFRET, SNAP-m2, 20μM agonist, individual cells, normalized to 1mM glutamate): 101% | EC50 (mGluR2 [4]; Mean half-maximum effective concentration (EC50), SNAP-m2 sensor, orthosteric agonist alone, nM for LY379268 (footnote)): 30.6 nM | Mean max response (normalized max ΔFRET) (mGluR2 [4]; SNAP-m2 (VFT), agonist alone (1 mM glutamate, 100 μM DCG-IV, 20 μM LY379268, 100 μM APDC), normalized to 1 mM glutamate): 1.01 | Normalized Max ΔFRET, Mean (mGluR2 [4]; SNAP-m2, 20μM agonist, mean of cells, normalized to 1mM glutamate): 101.061 | Hill slope (mGluR2 [4]; SNAP-m2 sensor, orthosteric agonist alone): –1.12 | Normalized FRET response, Mean (SNAP-m2 agonist DRC) (mGluR2 [4]; log[ligand] (M) -6): -1.011 | Normalized FRET response, Mean (SNAP-m2 agonist DRC) (mGluR2 [4]; log[ligand] (M) -6.69897): -1.017 | Normalized FRET response, Mean (SNAP-m2 agonist DRC) (mGluR2 [4]; log[ligand] (M) -7.1549): -0.7975 | Normalized FRET response, Mean (SNAP-m2 agonist DRC) (mGluR2 [4]; log[ligand] (M) -7.52288): -0.6707 | Normalized FRET response, Mean (SNAP-m2 agonist DRC) (mGluR2 [4]; log[ligand] (M) -8): -0.3677 | Normalized FRET response, Mean (SNAP-m2 agonist DRC) (mGluR2 [4]; log[ligand] (M) -8.39794): -0.1637 | Normalized FRET response, Mean (SNAP-m2 agonist DRC) (mGluR2 [4]; log[ligand] (M) -8.82391): -0.07424 | Normalized FRET response, Mean (SNAP-m2 agonist DRC) (mGluR2 [4]; log[ligand] (M) -9.52288): -0.01697 | Normalized FRET response, Mean (SNAP-m2 agonist DRC) (mGluR2 [4]; log[ligand] (M) -10): -0.0059 | Normalized FRET response, Mean (SNAP-m2 agonist DRC) (mGluR2 [4]; log[ligand] (M) -10.699): 0
Structure (SMILES): N[C@@]1(C(=O)O)CO[C@H]2[C@H](C(=O)O)[C@H]21 [LY379268]
Live-cell FRET max response normalized to 1mM glutamate (mGluR2 [2]; azi-ECL2 sensor, LY379268, individual values (N=22)): 0.9523 and 0.965 and 0.9976 and 1.05 and 1.063 and 1.017 and 1.16 and 1.1 and 1.538 and 1.083 and 1.3913 and 1.033 and 1.4421 and 1.297 and 1.208 and 1.454 and 1.223 and 1.042 and 0.9949 and 1.12 and 0.9608 and 0.9946 | Live-cell FRET max response normalized to 1mM glutamate (mGluR2 [3]; azi-CRD sensor, LY379268, individual values (N=25)): 1.396 and 1.075 and 1.11 and 1.161 and 1.042 (2×) and 1.039 and 1.015 and 1.054 and 0.99 and 1.034 and 0.9879 and 0.9896 and 1.016 and 1.007 and 1.046 and 1.009 (2×) and 0.9955 and 1.0569 and 1.003 and 0.9915 and 1.157 and 1.205 and 1.123 | Live-cell FRET max response normalized to 1mM glutamate (mGluR2 [4]; SNAP-m2 sensor, LY379268, individual values (N=23)): 0.9967 and 0.9702 and 0.9948 and 1.036 and 0.962 and 0.9651 and 1.05 (3×) and 1.035 and 1.049 and 1.015 and 0.9906 and 1.057 and 1.051 and 0.9532 and 0.9752 and 0.9335 and 1.106 and 1.013 and 0.9759 and 0.9961 and 1.019
